Patent US8791267B2, “Biaryl PDE4 inhibitors for treating inflammatory, cardiovascular and CNS disorders” (Decode Genetics EHF, priority 2007, dated 2014)
Counter-ions that a name gives are not always drawn. Like-named read-outs stand apart in the source and are kept apart here.

Tests used:
[1] = target: PDE4 (Homo sapiens, UniProt Q08499); assay: In-vitro assay for PDE4 enzymes, real-time enzyme-coupled spectrophotometric assay (Table 9); format: biochemical
[2] = target: PDE4B (Homo sapiens, UniProt Q07343); assay: In-vitro assay for PDE4 enzymes, real-time enzyme-coupled spectrophotometric assay, PDE4B Activity (Table 10); format: biochemical
Sequence of PDE4B (Q07343 whole entry): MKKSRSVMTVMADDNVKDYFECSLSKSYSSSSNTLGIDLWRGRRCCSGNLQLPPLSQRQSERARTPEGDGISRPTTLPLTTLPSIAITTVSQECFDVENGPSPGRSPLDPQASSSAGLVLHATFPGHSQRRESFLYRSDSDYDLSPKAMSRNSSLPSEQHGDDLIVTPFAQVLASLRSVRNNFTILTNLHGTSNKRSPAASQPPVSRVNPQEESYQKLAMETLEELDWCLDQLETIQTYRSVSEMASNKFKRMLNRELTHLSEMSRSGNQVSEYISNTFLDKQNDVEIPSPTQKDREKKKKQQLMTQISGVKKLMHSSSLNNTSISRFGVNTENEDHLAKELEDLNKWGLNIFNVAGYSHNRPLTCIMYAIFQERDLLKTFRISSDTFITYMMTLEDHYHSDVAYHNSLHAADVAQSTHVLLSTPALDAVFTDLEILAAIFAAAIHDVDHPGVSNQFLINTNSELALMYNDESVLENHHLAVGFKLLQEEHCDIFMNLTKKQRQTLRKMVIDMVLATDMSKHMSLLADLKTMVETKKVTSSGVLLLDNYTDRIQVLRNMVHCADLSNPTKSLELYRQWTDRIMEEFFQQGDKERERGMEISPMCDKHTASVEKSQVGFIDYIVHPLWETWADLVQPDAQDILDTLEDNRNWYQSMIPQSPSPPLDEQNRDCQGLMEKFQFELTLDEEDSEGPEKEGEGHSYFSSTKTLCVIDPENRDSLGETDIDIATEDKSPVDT

[3] = human PDE4D, activity class, Table 9, read-out: hPDE4D
[4] = human PDE4B (hPDE4B), enzyme-coupled spectrophotometric assay, read-out: PDE4B Activity, hPDE4B

Sequence of PDE4 (Q08499 whole entry): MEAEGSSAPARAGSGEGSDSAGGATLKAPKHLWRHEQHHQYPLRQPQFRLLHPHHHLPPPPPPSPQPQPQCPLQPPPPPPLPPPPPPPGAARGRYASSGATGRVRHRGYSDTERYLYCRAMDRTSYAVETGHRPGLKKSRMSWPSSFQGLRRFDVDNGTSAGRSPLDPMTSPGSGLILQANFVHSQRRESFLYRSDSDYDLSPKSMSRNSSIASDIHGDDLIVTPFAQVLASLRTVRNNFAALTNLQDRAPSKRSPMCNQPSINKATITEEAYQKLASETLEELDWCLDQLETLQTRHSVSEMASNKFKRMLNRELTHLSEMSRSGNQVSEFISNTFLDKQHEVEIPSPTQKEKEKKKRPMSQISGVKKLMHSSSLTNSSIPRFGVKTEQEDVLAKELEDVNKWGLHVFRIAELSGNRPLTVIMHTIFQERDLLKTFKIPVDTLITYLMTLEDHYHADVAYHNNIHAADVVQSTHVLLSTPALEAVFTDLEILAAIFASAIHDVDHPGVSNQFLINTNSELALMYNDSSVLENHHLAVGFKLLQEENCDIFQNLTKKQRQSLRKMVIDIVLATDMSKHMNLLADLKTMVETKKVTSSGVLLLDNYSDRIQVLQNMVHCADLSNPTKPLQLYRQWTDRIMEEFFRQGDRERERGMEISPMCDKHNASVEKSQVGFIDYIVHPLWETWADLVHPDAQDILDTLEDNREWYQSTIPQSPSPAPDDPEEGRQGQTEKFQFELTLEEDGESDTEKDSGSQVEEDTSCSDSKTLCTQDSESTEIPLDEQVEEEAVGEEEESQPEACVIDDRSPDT

## COc1ccc(Cc2ccc(F)cc2)cc1-c1ccc2nonc2c1 [P-004, 5-[5-(4-Fluoro-benzyl)-2-methoxy-phenyl]-benzo[1,2,5]oxadiazole]
[1]; [3]
  IC50: < 5 µM
[2]; [4]
  IC50: 5 to 20 µM

## COc1ccc(Cc2ccc(N)nc2)nc1-c1cccc(Cl)c1 [P-379, 5-[6-(3-chloro-phenyl)-5-methoxy-pyridin-2-ylmethyl]-pyridin-2-ylamine]
[1]; [3]
  IC50: < 5 µM
[2]; [4]
  IC50: < 5 µM

## COc1ccc(Cc2ccc(N3CCNC3=O)nc2)c(F)c1-c1cccc(C(C)=O)c1 [P-361, 1-[5-(3′-Acetyl-2-fluoro-6-methoxy-biphenyl-3-ylmethyl)-pyridin-2-yl]-imidazolidin-2-one]
[1]; [3]
  IC50: < 5 µM
[2]; [4]
  IC50: < 5 µM

## COc1ccc(Cc2ccc(NS(C)(=O)=O)cc2)c(F)c1-c1cccc(Cl)c1 [P-227]
[1]; [3]
  IC50: < 5 µM
[2]; [4]
  IC50: < 5 µM

## COc1ccc(Cc2ccc(F)cc2)cc1-c1cccc([N+](=O)[O-])c1 [P-001, 5-(4-Fluoro-benzyl)-2-methoxy-3′-nitro-biphenyl]
[1]; [3]
  IC50: < 5 µM
[2]; [4]
  IC50: < 5 µM

## COc1ccc(CN2C(=O)CCC2=O)cc1-c1cccc([N+](=O)[O-])c1 [P-036, 1-(6-Methoxy-3′-nitro-biphenyl-3-ylmethyl)-pyrrolidine-2,5-dione]
[1]; [3]
  IC50: < 5 µM
[2]; [4]
  IC50: 5 to 20 µM

## COc1ccc(Cc2cnc(N(C)CCO)nc2)c(F)c1-c1cccc(Cl)c1 [P-458, 2-{[5-(3′-Chloro-2-fluoro-6-methoxy-biphenyl-3-ylmethyl)-pyrimidin-2-yl]-methyl-amino}-ethanol]
[1]; [3]
  IC50: < 5 µM
[2]; [4]
  IC50: < 5 µM

## O=C1CCCN1Cc1ccc(O)c(-c2cccc([N+](=O)[O-])c2)c1 [P-503, 1-(6-Hydroxy-3′-nitro-biphenyl-3-ylmethyl)-pyrrolidin-2-one]
[1]; [3]
  IC50: 5 to 20 µM
[2]; [4]
  IC50: 5 to 20 µM

## CCOC(=O)N(CC)c1ccc(Cc2ccc(OC)c(-c3cccc(Cl)c3)c2F)cn1 [P-359]
[1]; [3]
  IC50: < 5 µM
[2]; [4]
  IC50: 5 to 20 µM

## COc1ccc(Cc2ccc(N3CCN(C)C3=O)nc2)c(F)c1-c1cccc(Cl)c1 [P-470, 1-[5-(3′-Chloro-2-fluoro-6-methoxy-biphenyl-3-ylmethyl)-pyridin-2-yl]-3-methyl-imidazolidin-2-one]
[1]; [3]
  IC50: < 5 µM
[2]; [4]
  IC50: < 5 µM

## COCc1ccc(OC)c(-c2cccc([N+](=O)[O-])c2)n1 [P-025, 3-methoxy-6-methoxymethyl-2-(3-nitro-phenyl)-pyridine]
[1]; [3]
  IC50: 5 to 20 µM
[2]; [4]
  IC50: 21 to 40 µM

## COc1ccc(Cc2ccccc2CN)cc1-c1cccc([N+](=O)[O-])c1 [P-133]
[1]; [3]
  IC50: 5 to 20 µM
[2]; [4]
  IC50: 5 to 20 µM

## COc1ccc(CN2C(=O)c3ccncc3C2=O)cc1-c1cccc([N+](=O)[O-])c1 [P-043, 2-(6-Methoxy-3′-nitro-biphenyl-3-ylmethyl)-pyrrolo[3,4-c]pyridine-1,3-dione]
[1]; [3]
  IC50: < 5 µM
[2]; [4]
  IC50: 5 to 20 µM

## COc1ccc(Nc2ccc(N)cc2)cc1-c1cccc(C(C)=O)c1 [P-260, 1-[5′-(4-Amino-phenylamino)-2′-methoxy-biphenyl-3-yl]-ethanone hydrochloride]
[1]; [3]
  IC50: < 5 µM
[2]; [4]
  IC50: 5 to 20 µM

## COc1ccc(Cc2ccc(OCCN3CCCC3)cc2)cc1-c1cccc([N+](=O)[O-])c1 [P-165]
[1]; [3]
  IC50: < 5 µM
[2]; [4]
  IC50: 5 to 20 µM

## O=[N+]([O-])c1cccc(-c2cc(C(O)c3ccc(F)cc3)ccc2OC(F)(F)F)c1 (centres unmarked) [P-079, (4-Fluoro-phenyl)-(3′-nitro-6-trifluoromethoxy-biphenyl-3-yl)-methanol]
[1]; [3]
  IC50: < 5 µM
[2]; [4]
  IC50: < 5 µM

## COc1ccc(Cc2ccc(N)cc2)cc1-c1cccc([N+](=O)[O-])c1 [P-113]
[1]; [3]
  IC50: < 5 µM
[2]; [4]
  IC50: < 5 µM

## COc1ccc(Cc2ccc(NC(=O)CCN)cc2)cc1-c1cccc([N+](=O)[O-])c1 [P-159]
[1]; [3]
  IC50: < 5 µM
[2]; [4]
  IC50: < 5 µM

## COc1ccc(Cc2ccc(CNC(=O)C(N)=O)nc2)c(F)c1-c1cccc(Cl)c1 [P-521, N-[5-(3′-Chloro-2-fluoro-6-methoxy-biphenyl-3-ylmethyl)-pyridin-2-ylmethyl]-oxalamide]
[1]; [3]
  IC50: < 5 µM
[2]; [4]
  IC50: < 5 µM

## COc1ccc(Cc2ccc(N)cc2)c(F)c1-c1cccc([N+](=O)[O-])c1 [P-136]
[1]; [3]
  IC50: < 5 µM
[2]; [4]
  IC50: < 5 µM

## NC(=O)Nc1ccc(Cc2ccc(OC(F)F)c(-c3cccc([N+](=O)[O-])c3)c2F)cc1 [P-316]
[1]; [3]
  IC50: < 5 µM
[2]; [4]
  IC50: < 5 µM

## COc1ccc(Cn2ccccc2=O)cc1-c1cccc(Cl)c1 [P-209, 1-(3′-Chloro-6-methoxy-biphenyl-3-ylmethyl)-1H-pyridin-2-one]
[1]; [3]
  IC50: 5 to 20 µM
[2]; [4]
  IC50: < 5 µM

## COc1ccc(Cc2ccc(N)nc2)cc1-c1cccc([N+](=O)[O-])c1 [P-111]
[1]; [3]
  IC50: < 5 µM
[2]; [4]
  IC50: < 5 µM

## COc1ccc(Cc2c(C)nn(CCO)c2C)cc1-c1cccc([N+](=O)[O-])c1 [P-088, 2-[4-(6-Methoxy-3′-nitro-biphenyl-3-ylmethyl)-3,5-dimethyl-pyrazol-1-yl]-ethanol]
[1]; [3]
  IC50: < 5 µM
[2]; [4]
  IC50: < 5 µM

## COc1ccc(Cc2ccc(OC(N)=O)cc2)c(F)c1-c1cccc(Cl)c1 [P-221]
[1]
  IC50: < 5 µM
[2]
  IC50: < 5 µM
